# Data as given in patent US6379959B1, “Metalocarboxypeptidase inhibitors and derived molecules used as antitumor agents” (Universitat Autonoma de Barcelona, priority 1996, dated 2002).
# Where two headings read alike, the source gives them in different places.
# How the values were obtained:
# [1] = tested on: human pancreatic adenocarcinoma cell line Capan-1; experiment: Apoptosis by DAPI labeling and fluorescence microscope; type: cell-based; conditions: positive control, 10 μg/mL, 24 h
# Experimental: The studies of possible induction of apoptosis by the PCI were done with the human pancreatic adenocarcinoma cell line Capan-1. The detailed procedure that was employed is as follows:
# 1. 5×10^5 cells were seed in the chambers/slides and were cultured for 3 o 4 days (until the moment in which, through microscope observation, they presented 75% of confluence). The cells were cultured in DMEM+10% FBS.
# 2. […] A positive control was added, cysplatinum, at a concentration of 10 μg/mL (a drug which induces apoptosis in various tumor cell lines, Borner, M. M., et al. (1995) Cancer Res., 55: 2122-2128. The incubation period was 24 h.
# 3. The medium was removed after incubation and the chamber was washed with 2 mL of PBS.
# 5. Cells were fixed with 2 mL of 2% formaldehyde for 20 min at 4° C.
# 6. The plates were washed again with 2 mL of PBS for 5 min at room temperature.
# 7. Cell membranes were permeabilized with 0.25% Triton ×100 in PBS for 5 min at 4° C.
# 8. Washed with PBS for 5 min at room temperature.
# 9. The cells were labeled with DAPI at a final concentration of 2 μg/mL for 50 min in darkness at room temperature.
# 10. The preparation was fitted with the fluoroprep medium and it was examined through the fluorescence microscope.
# % apoptosis=(number of apoptotic cells/total number of cells)×100
# [2] = tested on: human pancreatic adenocarcinoma cell line Panc-1; type: cell-based; conditions: SFM, 72 h
# Experimental: The tests that were carried out growing in free bovine fetal serum medium were very similar to those used in the line Capan-1 described in Section 4.B.2.b. The protocol employed is as follows:
# 1. A culture plate with 96 wells, in 42 of which 5,000 cells were seed per well. The cells were placed in full medium (RPMI+10%FBS).
# 2. After 48 h, after the cells had adhered to the surface of the well and they had divided as well, the medium was drained from the wells and to eliminate the rest of the serum, 200 μL of PBS were added to each well.
# 3. The PBS was removed and 200 μL of RPMI-FBS were added.
# 4. After 48 h, the medium was removed and the following treatments were applied:
# (§1) In 6 wells (control): 200 μL of serum-free medium (SFM) were added.
# In 6 wells, 200 μL of SFM plus the indicated concentration of one of the growth factors and wtPCI at a final concentration of 50 μg/mL were added.
# In 6 wells, 200 μL of SFM plus the indicated concentration of one of the growth factors and PCIdelYVG at a final concentration of 46 μg/mL were added.
# In 6 wells, 200 μL of SFM plus the indicated concentration of one of the growth factors and tail at a final concentration of 6.4 μg/mL were added.
# In 6 wells, 200 μL of SFM plus the indicated concentration of one of the growth factors and wtPCI at a final concentration of 50 μg/mL combined with tail at a final concentration of 6.4 μg/mL were added.
# In 6 wells, 200 μL of SFM plus the indicated concentration of one of the growth factors and PCIdelYVG at a final concentration of 46 μg/mL combined with tail at a final concentration of 6.4 μg/mL were added.
# The cells were kept in an incubator at 37° C., 87% of relative humidity and 10% of CO2.
# 5. After 72 h, the cell growth per well was evaluated using the method detailed in the protocol of Section 4.B.2.a.
# [3] = tested on: human pancreatic adenocarcinoma cell line Capan-1; type: cell-based; conditions: SFM, 72 h
# Experimental: Other kinds of tests were also carried out, the cells growing in serum-free medium as well; these were studies at short periods of time, 72 h, and of competitiveness with a growth factor plus wtPCI, PCIdelYVG or tail. […] The protocol employed was as follows:
# 1. In a culture plate of 96 wells, in 42 of which 5,000 cells per well were seed. The cells were placed in full medium (DMEM+10%FBS).
# 2. After 72 h, once the adhesion of the cells to the surface of the well had taken place, as well as their division, the medium was removed from the wells and to eliminate the remainder of the serum, 200 μL of PBS were added to each well.
# 3. The PBS was removed and 200 μL of DMEM-FBS were added.
# 4. After 24 h, the medium was removed and the following treatments were applied:
# as §1
# 200 μL of SFM plus the indicated concentration of one of the growth factors and wtPCI were added in 6 wells at a final concentration of 50 μg/mL.
# In 6 wells, 200 μL of SFM plus the indicated concentration of one of the growth factors and PCIdelYVG were added at a final concentration of 46 μg/mL. […]
# 4. Cells were kept in an incubator at 37° C., 87% of relative humidity and 10% of CO2.
# 5. After 72 h, the cellular growth per well was evaluated using the method detailed in the protocol of Section 4.B.2.a.
# [4] = tested on: human pancreatic adenocarcinoma cell line Panc-1; type: cell-based; conditions: SFM, 72 h; remark: listed apart in the source
# carboxypeptidase = molecular target: T1, carboxypeptidase (Bos taurus, UniProt P00730); experiment: Carboxypeptidase inhibiting effect; type: biochemical
# T1 sequence (P00730 111-419): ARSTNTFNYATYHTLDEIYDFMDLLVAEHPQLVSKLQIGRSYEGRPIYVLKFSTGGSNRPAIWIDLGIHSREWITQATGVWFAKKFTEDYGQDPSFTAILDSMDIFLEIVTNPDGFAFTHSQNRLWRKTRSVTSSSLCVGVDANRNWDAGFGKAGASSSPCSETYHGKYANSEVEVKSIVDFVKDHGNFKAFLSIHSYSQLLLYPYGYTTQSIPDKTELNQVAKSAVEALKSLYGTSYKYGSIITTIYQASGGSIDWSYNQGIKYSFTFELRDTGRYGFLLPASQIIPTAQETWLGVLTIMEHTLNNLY
# Experimental: All the buffers employed in HPLC and FPLC are prepared employing Mono-Q water and are filtered through membranes of 0.22 μm and degassed immediately before use. The HPLC, as well as the FPLC, are done at room temperature. The process of purification is done by determining the global concentration of proteins after each step using the Bradford method; the concentration of recombinant PCI is evaluated by measuring its inhibitory effect of CPA using appropriate blanks; or, in the case of PCI mutants with little or zero carboxypeptidase activity, by ELISA with rabbit polyclonal antibodies against PCI.
# To determine whether the inhibiting effect on cellular growth of the PCI is related to its carboxypeptidase inhibiting effect or with its specific knotin topology, tests of cellular inhibition with a mutant form were carried out. Concretely, the deletion of the three C-terminal amino acids was designed resulting in the form PCIdelY37V38G39 (or PCIdelYVG). This form was designed and constructed because it keeps the structure and the topology of wild PCI. This is inferred from the fact that it presents a similar chromatographic behaviour to that of the wild form and that it can be detected by antibodies antiwtPCI. Also by means of computer simulation (by molecular dynamics using the GROMOS programme) it presented a similar behaviour to the wild form after 300 ps of dynamics.
# [5] = tested on: human pancreatic adenocarcinoma cell line Capan-1; conditions: serum-free medium, 16 days
# Experimental: Two kinds of tests were carried out; the first one is the treatment of cells of the human pancreatic adenocarcinoma cell line Capan-1 with wtPCI and tail added to the culture medium in absence of serum.
# In a culture plate with 96 wells, 5,000 cells were seed per well, in 24 of them. The cells were placed in full medium (DMEM+10%FBS).
# In 6 wells (control): 200 μL of serum-free medium (DMEM-FBS) and free of tail were added.
# 200 μL of serum-free medium with 50 μg/mL of native PCI were added.
# In 6 wells, 200 μL of serum-free medium with 0.128 μg of tail/mL were added.
# In 6 wells, serum-free medium with 6.4 μg of tail/mL was added.
# The medium contained in the wells was changed every 3-4 days. The old medium was sucked out using a Pasteur pipette.
# After 16 days, the cell growth per well was evaluated according to the method detailed in the protocol of Section 4.B.2.a.
# [6] = tested on: human pancreatic adenocarcinoma cell line Panc-1; experiment: Proliferation test with tetrazolium salts, Panc-1 in medium with serum, 10 days; type: cell-based
# Experimental: It was performed the same kind of test which had been carried out for the Capan-1 cell line but with Panc-1, another human pancreatic adenocarcinoma cell line. We are referring to a human pancreatic adenocarcinoma ATCC nr. CRL 1469, established by Lieber, M. et al. (1975) In. J. Cancer, 15: 741-747. Of ductal origin, it is not highly differentiated.
# As for the Capan-1 cell line, two types of experiments were carried out with and without bovine fetal serum. The protocol followed for the test, growing in RPMI plus bovine fetal serum, was the same as that used with Capan-1 cell line but with small variations, given the difference in the duplication times between the two lines. The tests were carried out with the native PCI (wtPCI) and with the mutant PCI (PCIdelYVG). The protocol is detailed as follows:
# 1. In a culture plate with 96 wells, 2,000 cells were seed in 30 wells for the tests with wtPCI and in 36 for the tests with PCIdelYVG. From these 30 or 36:
# In 6 wells (control), 200 μL of full medium (RPMI+10%FBS) without wtPCI or PCIdelYVG/mL were added. […]
# 2. The cells were kept in an incubator at 37° C., 87% of relative humidity and 10% of CO2. The old medium was sucked out with a Pasteur pipette. Medium free of wtPCI or PCIdelYVG was added to the control wells and to the others a medium was added with identical concentration of wtPCI or PCIdelYVG.
# 3. After 10 days, the cell growth was evaluated per well, according to the method detailed in the protocol of Section 4.B.2.a.
# Panc-1 cells = experiment: Internalization studies by means of fluorescence (RITC labeling), Panc-1; type: cell-based, human; conditions: accumulation around the nucleus
# Experimental: In fluorescence studies, the possible internalization of PCI, labeled with a fluorophore, by Capan-1 and Panc-1 cell lines was followed by microscope observation.
# In the incorporation studies of the RITC-PCI, the protocol of Billings, P. C. et al. (1989) Carcinogenesis, 10: 687-691, slightly modified, was followed:
# 1. 200,000 cells of the cell line to be studied were placed in culture chambers/slides and were left there to grow for 48 h.
# 2. The medium of the cells growing in exponential phase was changed and 20 or 50 μg/mL of RITC-PCI were added to the new medium, keeping it in the medium for a variable incubation time ranging from 1 minute to 4 h inside the incubator.
# 3. The medium was retired after the incubation and the monolayer of the cells was washed with PBS for 10 min in darkness.
# 4. The cells were fixed with 350 μl of a solution 50% methanol—50% acetone for 8 min at 4° C. in a dark and humid chamber.
# 5. The cells were washed again with PBS for 10 min in darkness.
# 6. The preparations were dried with absorbing paper being very careful not to touch the cells. The preparations were fitted with PBS: Glycerol (1:1) and were sealed with nail polish.
# The labeling protocol was exactly the same as that of the wild PCI, as described in Section 4.F.1.b. The studies of incorporation of the labeled mutant were carried out as described in Section 4.F.1.c.
# [7] = Insulina 5 mg/mL + 6.4 mg/mL tail
# [8] = EGF 10 ng/mL + 46 mg/mL PCIdelYVG
# [9] = Insulin 5 mg/mL + 46 mg/mL PCIdelYVG
molecule,measurement,setting,value
"N.N.[Cl][Pt][Cl] [cysplatinum, reference compound]",% Apoptosis,[1],5.19%
EGF: epidermic growth factor [reference compound],Growth (Percentage in relation to the average of the controls),[2]; EGF 10 ng/mL alone,63.52%
same,inhibition in relation to the control situation,"[2]; EGF alone, in the tested concentration (10 ng/mL)",36%
same,Growth (Percentage in relation to the average of the controls),[3]; EGF 10 ng/mL alone,106.66%
same,growth in relation to the control situation,"[3]; EGF alone, at the tested concentration (10 ng/mL)",no differences in relation to the control situation
Insulin: growth factor used to stimulate proliferation [reference compound],Growth (Percentage in relation to the average of the controls),[2]; Insulin 5 mg/mL alone,193.47%
same,stimulation in relation to control,[2]; insulin alone (5 μg/mL),93%
same,Growth (Percentage in relation to the average of the controls),[3]; Insulin 5 mg/mL alone,292.86%
same,stimulation in relation to the control,[3]; insulin alone (5 μg/mL),193%
"H-GPYVG-OH [tail, H-Gly-Pro-Tyr-Val-Gly-OH]",Growth (Percentage in relation to the average of the controls),[4]; EGF 10 ng/mL + 6.4 mg/mL tail,16.23%
same,Growth (Percentage in relation to the average of the controls),[4]; [7],24.84%
same,Growth (Percentage in relation to the average of the controls),[3]; EGF 10 ng/mL + 6.4 mg/mL tail,28.33%
same,Growth (Percentage in relation to the average of the controls),[3]; [7],52.58%
same,carboxypeptidase inhibitory activity,carboxypeptidase,lacks carboxypeptidase inhibitory activity
same,Growth (Percentage in relation to the average of the controls),[5]; 0.128 mg/mL tail,81.95%
same,Growth (Percentage in relation to the average of the controls),[5]; 6.4 mg/mL tail,77%
PCIdelYVG: recombinant PCI mutant with deletion of the three C-terminal amino acids Tyr-Val-Gly (EQHADPICNKPCKTHDDCSGAWFCQACWNSARTCGP; Potato; (1)..(39) Isoform IIa of the potato carboxypeptidase inhibitor),inhibition of the growth,[6]; 46 μg/mL concentration,15%
same,Growth (Percentage in relation to the average of the controls),"[6]; 0.092 mg/mL PCIdelYVG, RPMI+10%FBS",112.92%
same,Growth (Percentage in relation to the average of the controls),[6]; 0.92 mg/mL PCIdelYVG,105.43%
same,Growth (Percentage in relation to the average of the controls),[6]; 23 mg/mL PCIdelYVG,94.85%
same,Growth (Percentage in relation to the average of the controls),[6]; 46 mg/mL PCIdelYVG,85.51%
same,stimulus of the growth,[6]; concentration 0.092 μg/mL,13%
same,Growth (Percentage in relation to the average of the controls),[4]; [8],5.53%
same,Growth (Percentage in relation to the average of the controls),[4]; [9],21.41%
same,Growth (Percentage in relation to the average of the controls),[3]; [8],40.83%
same,Growth (Percentage in relation to the average of the controls),[3]; [9],44.60%
same,Ki,carboxypeptidase,micromolar level
same,decrease of the inhibitory capacity,carboxypeptidase; compared with wild PCI,3 orders of magnitude
same,incorporation of RITC-labeled mutant by the cells,Panc-1 cells,is incorporated by the cells
IGF-1: growth factor 1 of the insulin type [reference compound],stimulation in relation to control,[2]; IGF-1 alone (20 ng/mL),26%
same,stimulation in relation to the control,[3]; IGF-1 alone (20 ng/mL),58%
